According to patent publication US9040568B2, “Pharmaceutical compositions for the treatment of pain” (AbbVie Inc., priority 2009, dated 2015):

How the values were obtained:
Format in all cases: in vivo, rat
[1] = system: nerve injury induced mechanical allodynia; experiment: Chung model of neuropathic pain (L5-L6 spinal nerve ligation, tactile allodynia, von Frey)
Procedure: To assess whether α4β2 PAM can increase antinociceptive responses of agonists in vivo, the following study was conducted. The materials and methods used to accomplish the study follow.
Male Sprague-Dawley rats (Charles River, Wilmington, Mass.) weighing 120-150 grams at time of surgery were utilized. These animals were group housed in AAALAC approved facilities at Abbott Laboratories in a temperature-regulated environment with lights on between 0700 and 2000 hours. Food and water was available ad libitum except during testing. All animal handling and experimental protocols were approved by an institutional animal care and use committee (IACUC). All experiments were performed during the light cycle.
5[(2R)-Azetidin-2-ylmethoxy]-2-chloropyridine (Compound A, 1-100 nmol/kg) and 3-(3-pyridin-3-yl)-1,2,4-oxadiazol-5-yl)benzonitrile (α4β2 PAM Compound 1, 1-35 μmol/kg, i.p.) was used. Compound A and D was prepared in saline and injected in solution in a volume of 2 ml/kg body weight 30 minutes before behavioral evaluation. Compound 1,3-(3-(pyridin-3-yl)-1,2,4-oxadiazol-5-yl)benzonitrile, was prepared in 30% hydroxybetacyclodextrin and injected in solution in a volume of 4 ml/kg body weight immediately before Compound A. For studies with Compound D, the doses tested ranged from 0.3-30 μmol/kg i.p.
To produce neuropathic pain, tight ligation of the L5-L6 spinal nerves was performed. As previously described in detail by Kim and Chung (Kim S H and Chung J M (1992), Pain 50: 355), following sterilization procedures, a 1.5 cm incision was made dorsal to the lumbosacral plexus. The paraspinal muscles (left side) were separated from the spinous processes, the L5 and L6 spinal nerves isolated, and tightly ligated with 3-0 silk thread. Following hemostasis, the wound was sutured and coated with antibiotic ointment. The rats were allowed to recover and then placed in a cage with soft bedding for 7-14 days before behavioral testing for mechanical allodynia.
Tactile allodynia was measured using calibrated (force; g) von Frey filaments (Stoelting, Wood Dale, Ill.). Briefly, rats were placed into individual plexiglass containers and allowed to acclimate for 15-20 minutes before testing. Withdrawal threshold was determined by increasing and decreasing stimulus intensity and estimated using a Dixon non-parametric test (Chaplan et al., 1994; Chaplan S R, Bach F W, Pogrel J W, Chung J M and Yaksh T L (1994) J Neurosci Methods 53:55-63). Only rats with threshold scores<4.5 g were considered allodynic and utilized in further testing. A percent of maximal possible effect (% M.P.E.) of the tested compounds was calculated according to the formula: ([post-drug threshold]-[baseline threshold])/([maximum threshold]-[baseline threshold])×100%, where maximum threshold was equal to 15 g.
Analysis of the in vivo data was carried out using analysis of variance. Where appropriate, Bonferroni's Multiple Comparison Test was used for post-hoc analysis. The level of significance was set at p less than 0.05. Data are presented as mean±S.E.M.

[2] = system: carrageenan-induced acute inflammatory thermal hyperalgesia; experiment: Carrageenan model of acute inflammatory thermal hyperalgesia; settings: for increase of the PWLcontra: vs vehicle
Procedure: Acute inflammatory thermal hyperalgesia were induced by injecting 100 μl of a 1% solution of λ-carrageenan (Sigma Chemical Co., St. Louis, Mo.) in physiological saline into the plantar surface of the right hind paw. Thermal hyperalgesia measured as paw withdrawal latency (PWL) was determined, using a commercially available thermal paw stimulator (UARDG, University of California, San Diego, Calif.) as described by Hargreaves et al. (Hargreaves et al., 1988). Rats were placed into individual plastic cubicles mounted on a glass surface maintained at 30° C., where a thermal stimulus, in the form of radiant heat emitted from a focused projection bulb, was then applied to the plantar surface of each hind paw. The stimulus current was maintained at 4.50±0.05 amp, and the maximum time of exposure was set at 20.48 s to limit possible tissue damage. The elapsed time until a brisk withdrawal of the hind paw from the thermal stimulus was recorded automatically using photodiode motion sensors. The right (carrageenan injected paw) and left hind paw of each rat was tested in 3 sequential trials at approximately 5 min intervals. Carrageenan-induced thermal hyperalgesia of paw withdrawal latency (PWLcarra) was calculated as the mean of the two shortest latencies. PWL was assessed 30 min (2 h after carrageenan injection) following i.p. compound administration. PWLcarra of the vehicle control group was taken as 0%, whereas the PWL of the contralateral side (PWLcontra) of the vehicle control group was taken as 100%, the analgesic efficacy was expressed as the percentage return of PWLcarra to PWLcontra.

[3] = system: MIA-induced osteoarthritis pain; experiment: Monoiodoacetate-induced osteoarthritis (MIA-OA) pain model, compressive grip force
Procedure: Under light isoflurane (2-3%) anesthesia, MIA (3 mg) was unilateral intra-articularly injected into right hind knee joint in a volume of 50 μl as previously described (Chandran et al., 2009). Compressive grip force (CGF) was determined 20 days following MIA injection by recording the maximum compressive force exerted on the hind limb strain gauge setup, using a commercially available grip force measurement system (Columbus Instruments, Columbus, Ohio). In this assay, each rat was gently restrained and the hind paw was allowed to grasp the wire mesh frame (10×12 cm) attached to the strain gauge. The animal was then moved in a rostral-to-caudal direction until the grip was broken, and CGF reading expressed as g was recorded. Each rat was sequentially tested twice at approximately 2-3 min intervals to obtain an average raw CGF. To avoid confounding factor of body weight, CGF was converted into CGFbody following the formula: g (CGF)÷kg (body weight). CGF was assessed 30 min following i.p. compound administration. The vehicle control group was taken as 0%, whereas the age-matched naïve group was described as 100% (normal), the analgesic efficacy was expressed as the percentage return of CGFbody to normalcy vs. the naïve group: [(treatment-vehicle)/(naïve-vehicle)]×100%. Experiments were performed in animals 20 days following MIA knee joint injection, since this is the time point that maximal reduction of grip force observed in the time-course experiment (Chandran et al., 2009).

[4] = Compound A 10 nmol/kg combined with Compound 1 (3.5 μmol/kg)
[5] = co-administration of Compound 1

Clc1ccc(OC[C@H]2CCN2)cn1 [Compound A, 5-[(2R)-azetidin-2-ylmethoxy]-2-chloropyridine]
efficacy in neuropathic pain ([1]; Compound A 1 nmol/kg alone): ineffective | efficacy in neuropathic pain ([1]; Compound A 1 nmol/kg combined with varying doses of Compound 1): dose-dependent increase in efficacy | mechanical paw withdrawal threshold (PWT) ([1]; Compound A co-administered with Compound 1 (PAM)): 12.1 ± 0.5 g | percent reversal of thermal hyperalgesia [2, 4]: 31±13% | PWLcarra ([2]; Compound A 10 nmol/kg i.p. in the presence of Compound 1 (3.5 μmol/kg)): 5.29 ± 0.91 s | percent reversal of thermal hyperalgesia ([2]; Compound A 30 nmol/kg combined with Compound 1 (3.5 μmol/kg)): 46±10% | PWLcarra ([2]; Compound A 30 nmol/kg i.p. in the presence of Compound 1 (3.5 μmol/kg)): 6.35 ± 0.71 s | percent reversal of thermal hyperalgesia ([2]; Compound A 100 nmol/kg combined with Compound 1 (3.5 μmol/kg)): 84±12% | PWLcarra ([2]; Compound A 100 nmol/kg i.p. in the presence of Compound 1 (3.5 μmol/kg)): 8.94 ± 0.79 s | percent reversal of thermal hyperalgesia ([2]; Compound A alone, 100 nmol/kg): 28±5% | PWLcarra ([2]; Compound A alone, 100 nmol/kg i.p.): 5.46 ± 0.36 s | percent reversal of thermal hyperalgesia ([2]; Compound A alone, 300 nmol/kg): 74±9% | PWLcarra ([2]; Compound A alone, 300 nmol/kg i.p.): 8.80 ± 0.65 s | increase of the PWLcontra ([2]; Compound A and Compound 1 co-administered animals): not statistically significant | increase of the PWLcontra ([2]; Compound A treated animals): not statistically significant | ED50 ([2]; Rattus norvegicus, Compound A alone, read-out: ED50 (reversal of thermal hyperalgesia)): 0.16 µmol/kg | leftward shift in the DRC of Compound A [2, 5]: 5 fold | percent return of grip force to normalcy ([3]; Compound A 0.3 nmol/kg combined with Compound 1 (3.5 μmol/kg)): 29±2% | CGFbody ([3]; Compound A 0.3 nmol/kg/kg in the presence of Compound 1 (3.5 μmol/kg)): 657 ± 21 g | percent return of grip force to normalcy ([3]; Compound A 1 nmol/kg combined with Compound 1 (3.5 μmol/kg)): 50±3% | CGFbody ([3]; Compound A 1 nmol/kg/kg in the presence of Compound 1 (3.5 μmol/kg)): 855 ± 28 g | percent return of grip force to normalcy ([3]; Compound A 3 nmol/kg combined with Compound 1 (3.5 μmol/kg)): 66±5% | CGFbody ([3]; Compound A 3 nmol/kg/kg in the presence of Compound 1 (3.5 μmol/kg)): 971 ± 35 g | percent return of grip force to normalcy [3, 4]: 92±6% | CGFbody ([3]; Compound A 10 nmol/kg/kg in the presence of Compound 1 (3.5 μmol/kg)): 1243 ± 56 g | CGFbody ([3]; Compound A alone, 1 nmol/kg): 575 ± 37 g | percent return of grip force to normalcy ([3]; Compound A alone, 1 nmol/kg): 20±4% | CGFbody ([3]; Compound A alone, 3 nmol/kg): 717 ± 64 g | percent return of grip force to normalcy ([3]; Compound A alone, 3 nmol/kg): 35±6% | CGFbody ([3]; Compound A alone, 10 nmol/kg): 992 ± 45 g | percent return of grip force to normalcy ([3]; Compound A alone, 10 nmol/kg): 65±5% | CGFbody ([3]; Compound A alone, 30 nmol/kg): 1234 ± 37 g | percent return of grip force to normalcy ([3]; Compound A alone, 30 nmol/kg): 90±4% | ED50 ([3]; Rattus norvegicus, Compound A alone, read-out: ED50 (return of grip force to normalcy)): 0.0046 µmol/kg | leftward shift in the DRC of Compound A [3, 5]: 5 fold

N#Cc1cccc(-c2nc(-c3cccnc3)no2)c1 [Example 1, 3-(3-(pyridin-3-yl)-1,2,4-oxadiazol-5-yl)benzonitrile]
effect on the dose response curve of Compound A ([1]; Compound 1 3.5 μmol/kg with various doses of Compound A): left-shifting the dose response curve of Compound A | efficacy in neuropathic pain ([1]; administered alone): ineffective | alteration of PWLcarra ([2]; Compound 1 alone, up to 35 μmmol/kg, i.p.): produced no alteration of PWLcarra | return of grip force normalcy ([3]; Compound 1 alone, 3.5 μmol/kg i.p.): produced no return of grip force normalcy
